The values below come from PMC4385830, “Group I Paks as therapeutic targets in NF2-deficient meningioma” (Oncotarget, 2015).

The structures appear in SMILES notation.

Assay [1] has as its system KT21 cells. Nature of the assay: Apoptosis, Annexin V positive cells by flow cytometry. It is filed as cell-based. The note with it: 3 days, vs DMSO. Here is the method:
For detection of apoptosis, subconfluent cells were plated in 60-mm plate and treated with inhibitors for 3 days. Cells were collected, washed and resuspended in 1x binding buffer with Annexin V-EGFP and propidium iodide (BioVision, CA) and incubated at room temperature for 5 min in dark. Apoptosis was measured using FACS with collecting 10,000 events per sample.

Assay [2] concerns the target T1, MET (cMet) (Homo sapiens, UniProt P08581).
T1 construct: purchased Invitrogen (Life Technologies) SelectScreen Z'-LYTE
Nature of the assay: Kinase selectivity, Z'-LYTE. The class given is biochemical. Here is the method: (§1) Kinase selectivity was assessed using a commercial service that employs a fluorescence-based, coupled-enzyme assay based on the differential sensitivity of phosphorylated and non-phosphorylated peptides to proteolytic cleavage (Invitrogen, Z'-LYTE®). This assay uses recombinant protein kinases and assay mixed optimized for each particular kinase (http://www.lifetechnologies.com/us/en/home/life-science/drug-discovery/target-and-lead-identification-and-validation /kinasebiology/kinase-activity-assays/z-lyte.html).

Assay [3] has as its target T2, RP88KA8 (RSK2) (Homo sapiens, UniProt P51812).
T2 construct: purchased Invitrogen (Life Technologies) SelectScreen Z'-LYTE
Nature of the assay: Kinase selectivity, Z'-LYTE. It is filed as biochemical. As for the experimental part: as §1

Assay [4] deals with T3, IGF1R (Homo sapiens, UniProt P08069).
T3 construct: purchased Invitrogen (Life Technologies) SelectScreen Z'-LYTE
Nature of the assay: Kinase selectivity, Z'-LYTE. The class given is biochemical. Here is the method: as §1

The target of assay [5] is T4, Pak4 (Homo sapiens, UniProt O96013).
T4 construct: purchased Invitrogen (Life Technologies) SelectScreen Z'-LYTE
As to the kind of experiment: Kinase selectivity, Z'-LYTE. It is filed as biochemical. Here is the method: as §1

Assay [6] has as its target T5, FLT3 (Homo sapiens, UniProt P36888).
T5 construct: purchased Invitrogen (Life Technologies) SelectScreen Z'-LYTE
T5 sequence (P36888 27-993): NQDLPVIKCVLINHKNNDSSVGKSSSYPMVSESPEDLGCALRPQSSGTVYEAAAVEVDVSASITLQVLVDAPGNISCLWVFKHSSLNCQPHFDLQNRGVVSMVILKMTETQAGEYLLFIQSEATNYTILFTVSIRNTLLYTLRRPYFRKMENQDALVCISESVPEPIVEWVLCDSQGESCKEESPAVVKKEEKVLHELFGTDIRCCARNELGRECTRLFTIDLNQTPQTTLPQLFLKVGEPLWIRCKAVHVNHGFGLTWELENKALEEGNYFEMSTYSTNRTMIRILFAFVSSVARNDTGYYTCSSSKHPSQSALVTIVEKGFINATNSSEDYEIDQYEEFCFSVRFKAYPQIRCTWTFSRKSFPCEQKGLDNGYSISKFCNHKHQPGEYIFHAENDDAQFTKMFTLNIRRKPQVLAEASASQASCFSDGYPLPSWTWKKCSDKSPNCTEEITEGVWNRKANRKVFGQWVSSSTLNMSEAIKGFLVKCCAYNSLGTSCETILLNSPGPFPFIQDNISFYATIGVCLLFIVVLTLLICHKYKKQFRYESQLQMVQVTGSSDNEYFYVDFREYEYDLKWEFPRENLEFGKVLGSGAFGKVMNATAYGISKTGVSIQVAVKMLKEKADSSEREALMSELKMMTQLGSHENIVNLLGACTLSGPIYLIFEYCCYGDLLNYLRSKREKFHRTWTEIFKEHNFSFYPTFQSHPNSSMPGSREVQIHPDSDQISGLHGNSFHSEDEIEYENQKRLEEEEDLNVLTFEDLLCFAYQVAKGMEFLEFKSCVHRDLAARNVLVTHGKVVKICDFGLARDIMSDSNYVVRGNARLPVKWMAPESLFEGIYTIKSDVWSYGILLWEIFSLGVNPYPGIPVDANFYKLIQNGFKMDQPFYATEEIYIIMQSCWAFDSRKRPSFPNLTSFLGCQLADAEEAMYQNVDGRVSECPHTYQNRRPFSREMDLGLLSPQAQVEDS
Nature of the assay: Kinase selectivity, Z'-LYTE. The class given is biochemical. As for the experimental part:
as §1

Assay [7] addresses T6, CHEK1 (CHK1) (Homo sapiens, UniProt O14757).
T6 construct: purchased Invitrogen (Life Technologies) SelectScreen Z'-LYTE
T6 sequence (O14757 1-476): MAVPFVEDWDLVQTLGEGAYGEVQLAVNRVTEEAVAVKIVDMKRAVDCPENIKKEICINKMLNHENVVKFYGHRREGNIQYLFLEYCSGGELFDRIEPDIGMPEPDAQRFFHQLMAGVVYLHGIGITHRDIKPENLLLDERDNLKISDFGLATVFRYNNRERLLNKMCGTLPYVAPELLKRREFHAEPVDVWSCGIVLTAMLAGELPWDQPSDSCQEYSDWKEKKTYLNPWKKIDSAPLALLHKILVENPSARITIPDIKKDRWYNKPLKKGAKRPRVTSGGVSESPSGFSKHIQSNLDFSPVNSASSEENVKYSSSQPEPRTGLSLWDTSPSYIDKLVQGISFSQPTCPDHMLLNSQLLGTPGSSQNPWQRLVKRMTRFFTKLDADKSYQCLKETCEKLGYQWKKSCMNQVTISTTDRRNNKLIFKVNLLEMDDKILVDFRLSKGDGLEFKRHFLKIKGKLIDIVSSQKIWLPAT
As to the kind of experiment: Kinase selectivity, Z'-LYTE. The class given is biochemical. Here is the method:
as §1

Assay [8] has as its target T7, PAK6 (Homo sapiens, UniProt Q9NQU5).
T7 construct: purchased Invitrogen (Life Technologies) SelectScreen Z'-LYTE
Nature of the assay: Kinase selectivity, Z'-LYTE. The class given is biochemical. As for the experimental part:
as §1

Assay [9] addresses T8, MAP2K1 (MEK1) (Homo sapiens, UniProt Q02750).
T8 construct: purchased Invitrogen (Life Technologies) SelectScreen Z'-LYTE
Nature of the assay: Kinase selectivity, Z'-LYTE. It is filed as biochemical. Here is the method:
as §1

For assay [10], the target named is T9, DYRK1A (Homo sapiens, UniProt Q13627).
T9 construct: purchased Invitrogen (Life Technologies) SelectScreen Z'-LYTE
As to the kind of experiment: Kinase selectivity, Z'-LYTE. It is filed as biochemical. Here is the method: as §1

Assay [11] addresses T10, ABL1 (Homo sapiens, UniProt P00519).
T10 construct: purchased Invitrogen (Life Technologies) SelectScreen Z'-LYTE
As to the kind of experiment: Kinase selectivity, Z'-LYTE. The class given is biochemical. As for the experimental part: as §1

For assay [12], the target named is T11, MAP2K2 (MEK2) (Homo sapiens, UniProt P36507).
T11 construct: purchased Invitrogen (Life Technologies) SelectScreen Z'-LYTE
As to the kind of experiment: Kinase selectivity, Z'-LYTE. The class given is biochemical. As for the experimental part: as §1

The target in assay [13] is T12, MAPK14 (p38 alpha) Direct (Homo sapiens, UniProt Q16539).
T12 construct: purchased Invitrogen (Life Technologies) SelectScreen Z'-LYTE
As to the kind of experiment: Kinase selectivity, Z'-LYTE. The class given is biochemical. As for the experimental part:
as §1

T4 sequence (O96013 whole entry): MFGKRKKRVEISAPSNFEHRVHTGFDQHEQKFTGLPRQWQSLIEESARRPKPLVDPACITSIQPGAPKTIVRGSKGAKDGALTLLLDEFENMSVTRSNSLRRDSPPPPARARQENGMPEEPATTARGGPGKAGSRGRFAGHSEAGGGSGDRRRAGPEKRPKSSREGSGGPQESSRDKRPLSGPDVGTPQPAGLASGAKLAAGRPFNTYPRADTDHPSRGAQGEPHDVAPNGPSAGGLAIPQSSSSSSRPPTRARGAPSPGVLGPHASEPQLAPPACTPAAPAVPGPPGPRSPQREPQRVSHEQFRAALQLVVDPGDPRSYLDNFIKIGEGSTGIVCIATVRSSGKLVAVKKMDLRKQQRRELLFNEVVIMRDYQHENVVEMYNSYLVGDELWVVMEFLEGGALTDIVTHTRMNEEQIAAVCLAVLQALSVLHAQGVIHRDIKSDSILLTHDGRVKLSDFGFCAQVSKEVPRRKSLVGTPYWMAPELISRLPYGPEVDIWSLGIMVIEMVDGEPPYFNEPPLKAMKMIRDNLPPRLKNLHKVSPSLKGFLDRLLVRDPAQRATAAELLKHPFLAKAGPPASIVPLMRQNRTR
T12 sequence (Q16539 whole entry): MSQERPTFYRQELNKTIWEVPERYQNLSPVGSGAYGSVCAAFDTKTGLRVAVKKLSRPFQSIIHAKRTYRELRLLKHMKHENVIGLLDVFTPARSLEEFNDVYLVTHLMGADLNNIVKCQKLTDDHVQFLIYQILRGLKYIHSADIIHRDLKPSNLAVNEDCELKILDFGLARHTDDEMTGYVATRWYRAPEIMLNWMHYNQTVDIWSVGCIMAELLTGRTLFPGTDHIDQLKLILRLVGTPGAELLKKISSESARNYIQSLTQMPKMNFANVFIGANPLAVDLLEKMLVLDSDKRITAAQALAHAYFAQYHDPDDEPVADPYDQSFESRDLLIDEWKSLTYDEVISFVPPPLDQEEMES
T10 sequence (P00519 whole entry): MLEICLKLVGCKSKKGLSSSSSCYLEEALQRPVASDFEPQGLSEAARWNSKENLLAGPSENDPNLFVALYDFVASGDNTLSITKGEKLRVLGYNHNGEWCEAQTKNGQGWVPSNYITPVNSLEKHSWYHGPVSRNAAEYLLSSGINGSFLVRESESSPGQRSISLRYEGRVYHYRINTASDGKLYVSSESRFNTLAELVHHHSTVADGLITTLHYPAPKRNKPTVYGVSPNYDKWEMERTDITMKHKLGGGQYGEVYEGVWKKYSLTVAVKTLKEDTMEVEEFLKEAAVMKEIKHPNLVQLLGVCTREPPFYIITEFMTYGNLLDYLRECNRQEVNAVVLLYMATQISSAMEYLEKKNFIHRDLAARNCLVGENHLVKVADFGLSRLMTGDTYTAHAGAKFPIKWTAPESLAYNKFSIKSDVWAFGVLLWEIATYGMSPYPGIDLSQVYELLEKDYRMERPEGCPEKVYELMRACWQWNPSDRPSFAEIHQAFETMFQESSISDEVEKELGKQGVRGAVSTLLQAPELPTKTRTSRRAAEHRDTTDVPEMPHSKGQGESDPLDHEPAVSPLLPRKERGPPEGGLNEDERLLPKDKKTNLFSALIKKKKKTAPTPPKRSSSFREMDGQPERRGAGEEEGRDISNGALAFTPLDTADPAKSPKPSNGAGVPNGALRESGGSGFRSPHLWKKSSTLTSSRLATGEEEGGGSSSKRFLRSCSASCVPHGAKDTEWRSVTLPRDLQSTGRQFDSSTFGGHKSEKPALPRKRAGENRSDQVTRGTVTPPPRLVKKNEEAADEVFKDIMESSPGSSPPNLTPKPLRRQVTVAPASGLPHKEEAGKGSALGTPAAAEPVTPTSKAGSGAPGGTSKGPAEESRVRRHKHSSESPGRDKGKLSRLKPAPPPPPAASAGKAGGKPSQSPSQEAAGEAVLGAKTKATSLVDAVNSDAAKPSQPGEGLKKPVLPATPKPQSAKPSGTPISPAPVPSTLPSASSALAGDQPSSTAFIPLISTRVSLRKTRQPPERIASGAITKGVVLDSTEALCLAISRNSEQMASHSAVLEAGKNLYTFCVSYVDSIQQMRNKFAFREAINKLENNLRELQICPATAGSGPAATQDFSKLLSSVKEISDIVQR
T8 sequence (Q02750 whole entry): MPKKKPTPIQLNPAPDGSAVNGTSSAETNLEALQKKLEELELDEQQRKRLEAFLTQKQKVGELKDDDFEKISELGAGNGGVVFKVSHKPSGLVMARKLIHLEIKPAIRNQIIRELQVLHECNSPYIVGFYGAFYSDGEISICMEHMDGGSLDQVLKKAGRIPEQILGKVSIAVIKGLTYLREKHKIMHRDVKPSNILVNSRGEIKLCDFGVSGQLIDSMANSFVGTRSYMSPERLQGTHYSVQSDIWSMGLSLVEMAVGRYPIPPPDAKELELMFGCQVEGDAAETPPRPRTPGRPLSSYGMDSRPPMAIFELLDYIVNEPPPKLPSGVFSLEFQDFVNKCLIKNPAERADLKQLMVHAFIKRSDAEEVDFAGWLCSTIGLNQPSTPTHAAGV
T2 sequence (P51812 whole entry): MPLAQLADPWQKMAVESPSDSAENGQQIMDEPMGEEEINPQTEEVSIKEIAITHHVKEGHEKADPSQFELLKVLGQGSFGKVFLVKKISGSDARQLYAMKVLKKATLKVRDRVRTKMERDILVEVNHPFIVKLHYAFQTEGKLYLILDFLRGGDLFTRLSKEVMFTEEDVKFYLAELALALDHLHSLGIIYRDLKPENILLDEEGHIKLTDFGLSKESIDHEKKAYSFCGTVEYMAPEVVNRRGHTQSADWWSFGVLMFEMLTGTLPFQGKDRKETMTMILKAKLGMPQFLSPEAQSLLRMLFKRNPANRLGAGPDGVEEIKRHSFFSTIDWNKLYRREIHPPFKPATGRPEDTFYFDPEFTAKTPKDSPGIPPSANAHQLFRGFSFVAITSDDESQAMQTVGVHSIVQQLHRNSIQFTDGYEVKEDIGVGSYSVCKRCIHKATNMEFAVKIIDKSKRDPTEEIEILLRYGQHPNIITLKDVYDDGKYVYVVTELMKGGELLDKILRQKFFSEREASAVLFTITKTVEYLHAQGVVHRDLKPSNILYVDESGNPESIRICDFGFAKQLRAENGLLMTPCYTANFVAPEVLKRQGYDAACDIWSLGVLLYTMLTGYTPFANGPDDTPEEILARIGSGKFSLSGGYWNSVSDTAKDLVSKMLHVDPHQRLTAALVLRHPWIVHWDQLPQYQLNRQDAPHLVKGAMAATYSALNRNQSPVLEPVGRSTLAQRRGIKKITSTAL
T7 sequence (Q9NQU5 whole entry): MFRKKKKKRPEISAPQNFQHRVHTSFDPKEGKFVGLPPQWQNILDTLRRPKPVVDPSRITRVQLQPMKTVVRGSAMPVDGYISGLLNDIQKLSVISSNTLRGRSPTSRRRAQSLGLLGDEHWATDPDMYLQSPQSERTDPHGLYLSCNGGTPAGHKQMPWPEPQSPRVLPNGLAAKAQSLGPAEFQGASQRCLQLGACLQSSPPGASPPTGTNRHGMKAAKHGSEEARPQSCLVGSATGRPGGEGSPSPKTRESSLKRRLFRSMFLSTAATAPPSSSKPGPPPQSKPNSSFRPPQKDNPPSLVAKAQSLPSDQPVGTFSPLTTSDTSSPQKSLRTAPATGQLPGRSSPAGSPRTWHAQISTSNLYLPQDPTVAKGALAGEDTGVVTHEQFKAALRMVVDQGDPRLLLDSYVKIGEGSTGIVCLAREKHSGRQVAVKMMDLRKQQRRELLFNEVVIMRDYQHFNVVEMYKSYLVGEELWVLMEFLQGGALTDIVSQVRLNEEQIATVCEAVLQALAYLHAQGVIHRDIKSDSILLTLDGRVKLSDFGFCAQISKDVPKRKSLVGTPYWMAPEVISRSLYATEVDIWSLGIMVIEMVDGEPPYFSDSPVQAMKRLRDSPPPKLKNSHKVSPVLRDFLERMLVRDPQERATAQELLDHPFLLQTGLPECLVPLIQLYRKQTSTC
T11 sequence (P36507 whole entry): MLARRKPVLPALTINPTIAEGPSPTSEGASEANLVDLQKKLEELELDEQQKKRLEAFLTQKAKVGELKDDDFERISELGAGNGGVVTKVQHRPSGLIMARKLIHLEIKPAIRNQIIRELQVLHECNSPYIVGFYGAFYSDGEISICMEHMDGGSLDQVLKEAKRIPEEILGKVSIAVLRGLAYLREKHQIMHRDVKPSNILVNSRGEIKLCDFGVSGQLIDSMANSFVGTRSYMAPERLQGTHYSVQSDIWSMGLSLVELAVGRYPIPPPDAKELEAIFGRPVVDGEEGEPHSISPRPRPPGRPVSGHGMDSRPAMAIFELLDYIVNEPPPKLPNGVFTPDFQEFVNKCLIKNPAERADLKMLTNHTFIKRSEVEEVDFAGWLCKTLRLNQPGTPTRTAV

As to `CCn1c(=O)c(-c2ccc(-c3noc(C)n3)cc2Cl)cc2cnc(Nc3ccc(C4CCN(C)CC4)cc3)nc21` [Frax716], the “number of apoptotic cells” value in [1] is given as “substantial increase”. The “% inhibition of activity” value is reported as 38% in assay [2]; 6% in assay [3]; 23% in [4]; 7% in assay [5]; 92% in [6]; −2% in [7]. Besides, the “% inhibition of activity” value in [8] is on record as 17%; in assay [9] it was 48%; in assay [10] it was 3%; in assay [11], 93%; in assay [12], 79%; in assay [13] it was 10%.
Turning to `CCn1c(=O)c(-c2ccc(-c3cncc(C)n3)cc2Cl)cc2cnc(NCCC3CCN(C)CC3)nc21` [Frax1036], in assay [1], the “number of apoptotic cells” value was “substantial increase”. In addition, the “% inhibition of activity” value in assay [2] is recorded as 36%; in [3], 11%; in assay [4] it was 7%; in assay [5] it was 6%; in [6], 10%; in [7] it was −14%. Also, the “% inhibition of activity” value in [8] amounted to 27%; in assay [9] it was 27%; in assay [10], 5%; in [11] it was 18%; in assay [12] it was 15%; in assay [13], 0%.
Regarding `Cc1nc(Nc2[nH]nc3c2CN(C(=O)N[C@H](CN(C)C)c2ccccc2)C3(C)C)c2sccc2n1` [PF3758309, reference compound], in assay [1], the “number of apoptotic cells” value was “substantial increase”. Moreover, the “% inhibition of activity” value is listed as 19% in assay [2]; 100% in assay [3]; 10% in assay [4]; 99% in assay [5]; 78% in [6]; 91% in assay [7]. The “% inhibition of activity” value in assay [8] stood at 98%; in assay [9], 39%; in assay [10], 6%; in [11], 62%; in [12], 20%; in assay [13], 7%.
